Measured values from ChEMBL document CHEMBL1201862, “PubChem BioAssay data set” (2004).
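Test compounds were applied to cells in 96-well plates for 48 hours at 5 doses. GI50 = concentration required for 50% inhibition of growth.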 Calls of active or inactive are those of the source. No stated cut-off is given here; in the data, active = GI50 up to about 1.1 µM and inactive = higher.

Assays:
Assay in all cases: growth of human tumour cells (NCI), 48 h
[1] = system: RXF 393
[2] = system: SNB-75
[3] = system: HOP-18
[4] = system: SN12C
[5] = system: UACC-62
[6] = system: NCI-H23
[7] = system: A549
[8] = system: U-251
[9] = system: EKVX
[10] = system: ACHN
[11] = system: CCRF-CEM
[12] = system: SK-MEL-2
[13] = system: M19-MEL
[14] = system: SF-539
[15] = system: HCT-116
[16] = system: SK-MEL-5
[17] = system: HT-29
[18] = system: UACC-257
[19] = system: CAKI-1
[20] = system: RPMI-8226
[21] = system: NCI-H226
[22] = system: OVCAR-3
[23] = system: DLD-1
[24] = system: LOX IMVI
[25] = system: UO-31
[26] = system: K562
[27] = system: KM-20L2
[28] = system: SR
[29] = system: OVCAR-4
[30] = system: HOP-92
[31] = system: HOP-62
[32] = system: HL-60
[33] = system: SF-295
[34] = system: OVCAR-8
[35] = system: DMS-114
[36] = system: LXFL 529
[37] = system: SW-620
[38] = system: COLO 205
[39] = system: IGROV-1
[40] = system: OVCAR-5
[41] = system: MOLT-4
[42] = system: A498
[43] = system: SK-OV-3
[44] = system: NCI-H460
[45] = system: NCI-H522
[46] = system: 786-0
[47] = system: M14
[48] = system: SK-MEL-28
[49] = system: HCC 2998
[50] = system: SF-268
[51] = system: TK-10
[52] = system: KM12
[53] = system: DMS-273
[54] = system: Malme-3M
[55] = system: SNB-78
[56] = system: SNB-19
[57] = system: HCT-15

In the case of `COc1cc(/C=C2/C(=O)N(C(=O)OC(C)C)C(Cc3cc(OC)c(OC)c(C)c3OC)C(=O)N2Cc2ccccc2)c(OC)c(C)c1OC` (stereo unspecified), the GI50 [1] is reported as 20.4 µM (inactive), the GI50 [2] is reported as 56 µM (inactive) and the GI50 [3] is reported as 49.5 µM (inactive). The GI50 [4] was 54.8 µM (inactive), the GI50 [5] was > 100 µM (inactive) and the GI50 [6] was 13.2 µM (inactive). For the same compound, the GI50 [7] was 56.9 µM (inactive), the GI50 [8] was 86.7 µM (inactive) and the GI50 [9] was > 100 µM (inactive). The GI50 [10] was > 100 µM (inactive), the GI50 [11] was 13.1 µM (inactive) and the GI50 [12] was 27.1 µM (inactive). The GI50 [13] was 57 µM (inactive), the GI50 [14] was > 100 µM (inactive) and the GI50 [15] was 27.5 µM (inactive). The GI50 [16] was 14.4 µM (inactive), the GI50 [17] was 27.9 µM (inactive) and the GI50 [18] was 7.94 µM (inactive). The GI50 [19] was > 100 µM (inactive), the GI50 [20] was 6.58 µM (inactive) and the GI50 [21] was 3.35 µM (inactive). The GI50 [22] was 12.7 µM (inactive), the GI50 [23] was > 100 µM (inactive) and the GI50 [24] was > 100 µM (inactive). For the same compound, the GI50 [25] was 9.06 µM (inactive), the GI50 [26] was 6.79 µM (inactive) and the GI50 [27] was 24.8 µM (inactive). The GI50 [28] was 7.24 µM (inactive), the GI50 [29] was 20.9 µM (inactive) and the GI50 [30] was 4 µM (inactive). The GI50 [31] was > 100 µM (inactive), the GI50 [32] was 3.52 µM (inactive) and the GI50 [33] was 68.7 µM (inactive). For the same compound, the GI50 [34] was 28.2 µM (inactive), the GI50 [35] was 13.6 µM (inactive) and the GI50 [36] was 10.4 µM (inactive). The GI50 [37] was 14.8 µM (inactive), the GI50 [38] was 27.2 µM (inactive) and the GI50 [39] was > 100 µM (inactive). The GI50 [40] was > 100 µM (inactive), the GI50 [41] was 3.33 µM (inactive) and the GI50 [42] was 73.1 µM (inactive). For the same compound, the GI50 [43] was 91.2 µM (inactive), the GI50 [44] was 3.51 µM (inactive) and the GI50 [45] was 3.74 µM (inactive). For the same compound, the GI50 [46] was > 100 µM (inactive), the GI50 [47] was 50.9 µM (inactive) and the GI50 [48] was > 100 µM (inactive). For the same compound, the GI50 [49] was 38.4 µM (inactive), the GI50 [50] was > 100 µM (inactive) and the GI50 [51] was 35.6 µM (inactive). The GI50 [52] was 54.2 µM (inactive), the GI50 [53] was 14 µM (inactive) and the GI50 [54] was 22.2 µM (inactive).
`Cc1ccc(S(=O)(=O)OC(COC(=O)c2ccccc2)C(OS(=O)(=O)c2ccc(C)cc2)C(OS(=O)(=O)c2ccc(C)cc2)C(COC(=O)c2ccccc2)OS(=O)(=O)c2ccc(C)cc2)cc1` (stereo unspecified) was tested, and the GI50 [1] was > 100 µM (inactive), the GI50 [2] was 29.1 µM (inactive) and the GI50 [4] was > 100 µM (inactive). For the same compound, the GI50 [5] was > 10 µM (inactive), the GI50 [6] was > 100 µM (inactive) and the GI50 [7] was > 100 µM (inactive). For the same compound, the GI50 [8] was > 100 µM (inactive), the GI50 [9] was > 100 µM (inactive) and the GI50 [10] was > 100 µM (inactive). The GI50 [11] was > 100 µM (inactive), the GI50 [12] was > 100 µM (inactive) and the GI50 [13] was > 100 µM (inactive). The GI50 [14] was > 100 µM (inactive), the GI50 [15] was > 100 µM (inactive) and the GI50 [16] was > 100 µM (inactive). The GI50 [17] was > 100 µM (inactive), the GI50 [18] was > 100 µM (inactive) and the GI50 [19] was > 100 µM (inactive). The GI50 [20] was > 100 µM (inactive), the GI50 [22] was > 100 µM (inactive) and the GI50 [24] was > 100 µM (inactive). The GI50 [25] was > 100 µM (inactive), the GI50 [26] was > 100 µM (inactive) and the GI50 [27] was > 100 µM (inactive). For the same compound, the GI50 [28] was > 100 µM (inactive), the GI50 [29] was > 100 µM (inactive) and the GI50 [30] was > 100 µM (inactive). For the same compound, the GI50 [31] was > 100 µM (inactive), the GI50 [32] was > 100 µM (inactive) and the GI50 [55] was > 100 µM (inactive). The GI50 [33] was > 100 µM (inactive), the GI50 [34] was > 100 µM (inactive) and the GI50 [36] was > 100 µM (inactive). The GI50 [56] was > 100 µM (inactive), the GI50 [57] was > 100 µM and the GI50 [37] was > 100 µM (inactive). For the same compound, the GI50 [38] was > 100 µM (inactive), the GI50 [39] was > 10 µM (inactive) and the GI50 [41] was > 100 µM (inactive). The GI50 [42] was > 100 µM (inactive), the GI50 [43] was > 10 µM (inactive) and the GI50 [44] was > 100 µM (inactive). The GI50 [45] was > 100 µM (inactive), the GI50 [46] was > 100 µM (inactive) and the GI50 [47] was > 100 µM (inactive). The GI50 [48] was > 100 µM (inactive), the GI50 [49] was > 100 µM (inactive) and the GI50 [50] was > 100 µM (inactive). The GI50 [51] was > 100 µM (inactive), the GI50 [52] was > 100 µM (inactive) and the GI50 [53] was > 100 µM (inactive). The GI50 [54] was > 100 µM (inactive).
With `O=C1c2cccc(NCCCNCCO)c2C(=O)c2cccc(NCCCNCCO)c21` the GI50 [1] was 2.95 µM (inactive), the GI50 [3] was 2.67 µM (inactive) and the GI50 [4] was 1.26 µM (inactive). The GI50 [5] was 1.76 µM (inactive), the GI50 [6] was 2.99 µM (inactive) and the GI50 [7] was 1.99 µM (inactive). For the same compound, the GI50 [9] was 2.32 µM (inactive), the GI50 [10] was 1.59 µM (inactive) and the GI50 [11] was 1.34 µM (inactive). The GI50 [12] was 1.92 µM (inactive), the GI50 [14] was 1.86 µM (inactive) and the GI50 [15] was 1.56 µM (inactive). The GI50 [16] was 1.78 µM (inactive), the GI50 [17] was 1.41 µM (inactive) and the GI50 [18] was 3.56 µM (inactive). The GI50 [20] was 1.97 µM (inactive), the GI50 [22] was 2.53 µM (inactive) and the GI50 [23] was 3.13 µM (inactive). For the same compound, the GI50 [24] was 2.1 µM (inactive), the GI50 [25] was 9.68 µM (inactive) and the GI50 [27] was 2.34 µM (inactive). The GI50 [31] was 2.43 µM (inactive), the GI50 [32] was 1.36 µM (inactive) and the GI50 [55] was 2.06 µM (inactive). The GI50 [34] was 1.86 µM (inactive), the GI50 [57] was 7.31 µM and the GI50 [37] was 1.46 µM (inactive). The GI50 [38] was 1.36 µM (inactive), the GI50 [39] was 2.56 µM (inactive) and the GI50 [40] was 2.65 µM (inactive). The GI50 [41] was 1.35 µM (inactive), the GI50 [42] was 2.17 µM (inactive) and the GI50 [44] was 1.68 µM (inactive). The GI50 [46] was 1.96 µM (inactive), the GI50 [47] was 2.09 µM (inactive) and the GI50 [48] was 1.96 µM (inactive). For the same compound, the GI50 [49] was 1.08 µM (active), the GI50 [51] was 3 µM (inactive) and the GI50 [52] was 1.92 µM (inactive). For the same compound, the GI50 [53] was 2.02 µM (inactive).
For `CCN(CC)C(=O)c1ccc(C)c(/N=N/N(C)C)c1`, the GI50 [4] was > 100 µM (inactive), the GI50 [5] was > 100 µM (inactive) and the GI50 [6] was > 100 µM (inactive). The GI50 [7] was > 100 µM (inactive), the GI50 [8] was > 100 µM (inactive) and the GI50 [9] was > 100 µM (inactive). The GI50 [10] was > 100 µM (inactive), the GI50 [12] was > 100 µM (inactive) and the GI50 [13] was > 100 µM (inactive). The GI50 [14] was > 100 µM (inactive), the GI50 [15] was > 100 µM (inactive) and the GI50 [16] was > 100 µM (inactive). For the same compound, the GI50 [17] was > 100 µM (inactive), the GI50 [18] was > 100 µM (inactive) and the GI50 [19] was > 100 µM (inactive). The GI50 [22] was > 100 µM (inactive), the GI50 [23] was > 100 µM (inactive) and the GI50 [24] was > 100 µM (inactive). The GI50 [25] was > 100 µM (inactive), the GI50 [27] was > 10 µM (inactive) and the GI50 [29] was > 100 µM (inactive). The GI50 [30] was > 100 µM (inactive), the GI50 [31] was > 100 µM (inactive) and the GI50 [33] was > 100 µM (inactive). The GI50 [34] was > 100 µM (inactive), the GI50 [36] was > 100 µM (inactive) and the GI50 [56] was > 100 µM (inactive). For the same compound, the GI50 [57] was > 100 µM, the GI50 [37] was > 100 µM (inactive) and the GI50 [39] was > 100 µM (inactive). For the same compound, the GI50 [44] was > 100 µM (inactive), the GI50 [45] was 44 µM (inactive) and the GI50 [46] was > 100 µM (inactive). For the same compound, the GI50 [47] was > 100 µM (inactive), the GI50 [48] was > 100 µM (inactive) and the GI50 [49] was > 100 µM (inactive). The GI50 [50] was > 100 µM (inactive), the GI50 [51] was > 100 µM (inactive) and the GI50 [52] was > 100 µM (inactive). For the same compound, the GI50 [53] was > 100 µM (inactive).
